Experimental data reported in ChEMBL document CHEMBL5052833, “Ube2k modulators and methods for their use” (2021).
The source made the active and inactive calls. The calls are words filed in the database; no cut-off is given here.

What was measured:
K562 [1] = experiment: Antitumor activity against human K562 cells xenografted female SCID Bg mouse assessed as tumor growth inhibition at 25 mg/kg, po administered twice a day for 12 consecutive days and measured on day 10; assay type: functional; details: 240 h, time 10 day, read-out: TGI
K562 [2] = experiment: Antitumor activity against human K562 cells xenografted female SCID Bg mouse assessed as tumor growth inhibition at 25 mg/kg, po administered twice a day for 12 consecutive days and measured on day 12; assay type: functional; details: 288 h, time 12 day, read-out: TGI
Homo sapiens [3] = species: Homo sapiens; experiment: Stabilization of mono-ubiquitinated UBE2Q2 (unknown origin) at 500 uM assessed as decrease in poly-Ub measured by poly-ubiquitination assay
Homo sapiens [4] = species: Homo sapiens; experiment: Stabilization of mono-ubiquitinated UBE2W (unknown origin) at 500 uM assessed as decrease in poly-Ub measured by poly-ubiquitination assay
[5] = molecular target: Ubiquitin-conjugating enzyme E2 E1 (Homo sapiens) (UniProt P51965); experiment: Stabilization of mono-ubiquitinated UBE2E1 (unknown origin) at 500 uM assessed as decrease in poly-Ub measured by poly-ubiquitination assay
Sequence of Ubiquitin-conjugating enzyme E2 E1 (Homo sapiens) (P51965 whole entry): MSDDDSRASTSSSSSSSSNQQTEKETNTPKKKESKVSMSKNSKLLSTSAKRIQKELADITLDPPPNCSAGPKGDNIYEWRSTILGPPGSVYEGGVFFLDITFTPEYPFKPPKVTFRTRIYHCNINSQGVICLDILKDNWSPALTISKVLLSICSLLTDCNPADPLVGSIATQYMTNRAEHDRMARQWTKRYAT

Homo sapiens [6] = species: Homo sapiens; experiment: Stabilization of mono-ubiquitinated UBE2D4 (unknown origin) at 500 uM assessed as decrease in poly-Ub measured by poly-ubiquitination assay
Homo sapiens [7] = species: Homo sapiens; experiment: Stabilization of mono-ubiquitinated UBE2S (unknown origin) at 500 uM assessed as decrease in poly-Ub measured by poly-ubiquitination assay
[8] = molecular target: T1, Ubiquitin-conjugating enzyme E2 K (Homo sapiens) (UniProt P61086); experiment: Stabilization of mono-ubiquitinated UBE2K (unknown origin) at 500 uM assessed as decrease in poly-Ub measured by poly-ubiquitination assay
T1 sequence (whole entry): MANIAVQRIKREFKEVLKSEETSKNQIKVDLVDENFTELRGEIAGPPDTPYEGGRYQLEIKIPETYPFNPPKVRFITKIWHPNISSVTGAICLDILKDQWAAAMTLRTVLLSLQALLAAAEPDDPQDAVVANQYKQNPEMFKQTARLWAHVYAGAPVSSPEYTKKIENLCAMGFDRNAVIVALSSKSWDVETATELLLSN

[9] = molecular target: T1, Ubiquitin-conjugating enzyme E2 K (Homo sapiens); experiment: Stabilization of mono-ubiquitinated UBE2K (unknown origin) at 0.4 to 100 uM assessed as decrease in poly-Ub measured by poly-ubiquitination assay; details: dose 0.4-100 µM
[10] = molecular target: T1, Ubiquitin-conjugating enzyme E2 K (Homo sapiens); experiment: Stabilization of UBE2K (unknown origin) at 1 to 1000 uM assessed as modulation of ubiquitin discharge measured by ELISA assay; details: dose 1-1000 µM
[11] = molecular target: T1, Ubiquitin-conjugating enzyme E2 K (Homo sapiens); experiment: Stabilization of mono-ubiquitinated UBE2K (unknown origin) at 16 to 100 uM assessed as decrease in poly-Ub measured by poly-ubiquitination assay; details: dose 16-100 µM
[12] = molecular target: T1, Ubiquitin-conjugating enzyme E2 K (Homo sapiens); experiment: Stabilization of mono-ubiquitinated UBE2K (unknown origin) at 0.25 to 25 uM assessed as decrease in poly-Ub measured by poly-ubiquitination assay; details: dose 0.25-25 µM
MV4-11 [13] = experiment: Antitumor activity against human MV4-11 cells xenografted nude mouse assessed as tumor growth inhibition at 75 mg/kg, po administered twice a day for 24 days; assay type: functional; details: MV4-11, po, 576 h, time 24 day, read-out: TGI
MV4-11 [14] = experiment: Antitumor activity against human MV4-11 cells xenografted nude mouse assessed as tumor growth inhibition at 150 mg/kg, po administered twice a day for 24 days; assay type: functional; details: MV4-11, po, 576 h, time 24 day, read-out: TGI
[15] = molecular target: T1, Ubiquitin-conjugating enzyme E2 K (Homo sapiens); experiment: Stabilization of mono-ubiquitinated UBE2K (unknown origin) at 0.25 to 50 uM assessed as decrease in poly-Ub measured by poly-ubiquitination assay; details: dose 0.25-50 µM

Activity (Homo sapiens [3])	Activity (Homo sapiens [4])	Activity [5]	Activity (Homo sapiens [6])	Activity (Homo sapiens [7])	Activity [8]	Activity [9]	Activity [10]	SMILES	further results
								COc1ccc(F)cc1-c1nc(CNC(=O)c2cc(F)ccc2OC(F)(F)F)n[nH]1	inhibition in vivo at 25 mg/kg (K562 [1]): 73.6%; inhibition in vivo at 25 mg/kg (K562 [2]): 86.3%
inactive	inactive	inactive	inactive	inactive	Active			COc1ccc(F)cc1-c1nc(CNC(=O)c2ccccc2OC(F)F)n[nH]1	
inactive	inactive	inactive	inactive	inactive	Active	Active	Active	COc1ccccc1-c1cc(CNC(=O)c2ccccc2OC(F)(F)F)n[nH]1	
						Active	Active	O=C(NCc1cc(-c2ccccc2O)[nH]n1)c1ccccc1OC(F)(F)F	
								O=C(NCc1cc(-c2cccs2)[nH]n1)c1ccccc1C(F)(F)F	Activity [11]: Active
inactive	inactive	inactive	inactive	inactive	Active	Active	Active	COc1ccccc1-c1nc(CNC(=O)c2ccccc2OC(F)F)n[nH]1	
								O=C(NCc1cc(-c2cccs2)[nH]n1)c1ccccc1OC(F)F	Activity [12]: Active
							Active	COc1ccc(F)cc1-c1nc(CNC(=O)c2cccc3c2OC(F)(F)O3)n[nH]1	inhibition in vivo at 75 mg/kg (MV4-11 [13]): 43%; inhibition in vivo at 150 mg/kg (MV4-11 [14]): 37%
							Active	COc1ccccc1-c1nc(CNC(=O)c2cc(C#N)ccc2OC(F)F)n[nH]1	
								O=C(NCc1cc(-c2cccs2)[nH]n1)c1ccccc1OC(F)(F)F	Activity [15]: Active
